The subject of assay [1] is Canis familiaris. In words: Ex vivo percent inhibition of platelet aggregation at oral dose of 4 mg/kg after 480 min. It counts as functional. Conditions: Canis lupus familiaris, 8 h.
Assay [2] deals with Canis familiaris. Briefly: Ex vivo percent inhibition of platelet aggregation at oral dose of 2 mg/kg after 140 min. Conditions: Canis lupus familiaris. It counts as functional.
The target in assay [3] is Integrin alpha-5/beta-1 (Homo sapiens) (UniProt P05556+P08648). Briefly: Inhibition of human umbilical vein endothelial cell (HUVEC) adhesion to fibronectin at 300 uM (No inhibition). It counts as cell-based.
Assay [4] concerns the target Integrin alpha-IIb/beta-3 (Homo sapiens) (UniProt P05106+P08514). Briefly: Inhibition of human umbilical vein endothelial cell (HUVEC) adhesion to fibrinogen at 300 uM (No inhibition). It counts as cell-based.
Another assay has as its system HUVEC. Briefly: Inhibition of human umbilical vein endothelial cell (HUVEC) adhesion to vitronectin at 300 uM (No inhibition). It counts as cell-based.

Calls of active or inactive are those of the source. The calls are words filed in the database; no cut-off is given here.

Data on one compound can be found in ChEMBL document CHEMBL1127939, “Non-peptide fibrinogen receptor antagonists. 3. design and discovery of a centrally constrained inhibitor” (Bioorg Med Chem Lett, 1994).

As a reminder, the inhibition in vivo is the percentage by which the read-out fell short of the control. The low end stands for a weak effect, the high end for a strong effect.

`O=C(O)CCNC(=O)c1ccc2c(c1)C(=O)N(CCC1CCNCC1)C2` displayed an inhibition in vivo at 4 mg/kg in the assay with Canis familiaris [1] of 90%. This compound also displayed an inhibition in vivo at 2 mg/kg in the assay with Canis familiaris [2] of 65%. Further, the inhibition entry (in assay [3]; in assay [4]; in the assay on HUVEC) was “inactive” in each case.
